Common to all, as to assay type: in vivo
Assay [1] has as its system Barnyardgrass. In words: Post-emergence herbicide test. Conditions: Echinochloa crus-galli, read-out: % plant inhibition (Bygr); for inhibition at 1120 g/ha: 1.12 kg/ha; for inhibition at 11210 g/ha: 11.21 kg/ha. The method in brief:
(§1)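 Foliar spray trial in greenhouse pans: two- to three-week-old plants treated at 200 gallons/acre by atomizer, spray containing about 0.4% emulsifier. Percent inhibition compared with untreated controls was recorded around day 11.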

For assay [2], the system named is Yellow nutsedge. Kind of assay: Post-emergence herbicide test. Particulars: Cyperus, read-out: % plant inhibition (Yens); for inhibition at 1120 g/ha: 1.12 kg/ha; for inhibition at 11210 g/ha: 11.21 kg/ha. The procedure, abridged: as §1
For assay [3], the system named is Seedling johnsongrass. Kind of assay: Post-emergence herbicide test. Conditions: Sorghum halepense, read-out: % plant inhibition (Sejg); for inhibition at 1120 g/ha: 1.12 kg/ha; for inhibition at 11210 g/ha: 11.21 kg/ha. The procedure, abridged: as §1
In assay [4] the test system is Cocklebur. In words: Post-emergence herbicide test. Conditions: Xanthium strumarium, read-out: % plant inhibition (Cobu); for inhibition at 1120 g/ha: 1.12 kg/ha; for inhibition at 11210 g/ha: 11.21 kg/ha. The procedure, abridged: as §1
Assay [5] concerns Velvetleaf. In words: Post-emergence herbicide test. Conditions: Abutilon theophrasti, read-out: % plant inhibition (Vele); for inhibition at 1120 g/ha: 1.12 kg/ha; for inhibition at 11210 g/ha: 11.21 kg/ha. The procedure, abridged: as §1
Assay [6] relates to Downy Brome. In words: Post-emergence herbicide test. Conditions: Bromus tectorum, read-out: % plant inhibition (Dobr); for inhibition at 1120 g/ha: 1.12 kg/ha; for inhibition at 11210 g/ha: 11.21 kg/ha. The procedure, abridged:
as §1

The subject of assay [7] is Wild buckwheat. In words: Post-emergence herbicide test. Particulars: Fallopia convolvulus, read-out: % plant inhibition (Wibw); for inhibition at 1120 g/ha: 1.12 kg/ha; for inhibition at 11210 g/ha: 11.21 kg/ha. The procedure, abridged:
as §1

The subject of assay [8] is Indian Mustard. In words: Post-emergence herbicide test. Conditions: Brassica juncea, read-out: % plant inhibition (Inmu); for inhibition at 1120 g/ha: 1.12 kg/ha; for inhibition at 11210 g/ha: 11.21 kg/ha. The method in brief: as §1
Assay [9] deals with Annual bluegrass. In words: Post-emergence herbicide test. Particulars: read-out: % plant inhibition (Anbg); for inhibition at 1120 g/ha: 1.12 kg/ha; for inhibition at 11210 g/ha: 11.21 kg/ha. The procedure, abridged:
as §1

In assay [10] the test system is Morningglory. Kind of assay: Post-emergence herbicide test. Conditions: Ipomoea, read-out: % plant inhibition (Mogl); for inhibition at 1120 g/ha: 1.12 kg/ha; for inhibition at 11210 g/ha: 11.21 kg/ha. The procedure, abridged: as §1
The test system of assay [11] is Barnyardgrass. In words: Pre-emergence herbicide test. Conditions: Echinochloa crus-galli, read-out: % plant inhibition (Bygr); for inhibition at 1120 g/ha: 1.12 kg/ha; for inhibition at 11210 g/ha: 11.21 kg/ha. The procedure, abridged: (§2)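 Pre-emergence soil application: compound in acetone or water carrier sprayed onto seeded topsoil surface, overlaid with untreated soil. Pans kept on greenhouse bench, watered from below. Read-out % inhibition, ~11 days post-treatment.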

Assay [12] has as its system Yellow nutsedge. Kind of assay: Pre-emergence herbicide test. Particulars: Cyperus, read-out: % plant inhibition (Yens); for inhibition at 1120 g/ha: 1.12 kg/ha; for inhibition at 11210 g/ha: 11.21 kg/ha. The procedure, abridged: as §2
The test system of assay [13] is Seedling johnsongrass. Kind of assay: Pre-emergence herbicide test. Conditions: Sorghum halepense, read-out: % plant inhibition (Sejg); for inhibition at 1120 g/ha: 1.12 kg/ha; for inhibition at 11210 g/ha: 11.21 kg/ha. The procedure, abridged: as §2
Assay [14] concerns Cocklebur. Kind of assay: Pre-emergence herbicide test. Conditions: Xanthium strumarium, read-out: % plant inhibition (Cobu); for inhibition at 1120 g/ha: 1.12 kg/ha; for inhibition at 11210 g/ha: 11.21 kg/ha. The method in brief:
as §2

Assay [15] has as its system Velvetleaf. Kind of assay: Pre-emergence herbicide test. Particulars: Abutilon theophrasti, read-out: % plant inhibition (Vele); for inhibition at 1120 g/ha: 1.12 kg/ha; for inhibition at 11210 g/ha: 11.21 kg/ha. The procedure, abridged:
as §2

Assay [16] concerns Downy Brome. Kind of assay: Pre-emergence herbicide test. Conditions: Bromus tectorum, read-out: % plant inhibition (Dobr); for inhibition at 1120 g/ha: 1.12 kg/ha; for inhibition at 11210 g/ha: 11.21 kg/ha. The method in brief: as §2
For assay [17], the system named is Wild buckwheat. Kind of assay: Pre-emergence herbicide test. Conditions: Fallopia convolvulus, read-out: % plant inhibition (Wibw); for inhibition at 1120 g/ha: 1.12 kg/ha; for inhibition at 11210 g/ha: 11.21 kg/ha. The procedure, abridged: as §2
Assay [18] relates to Indian Mustard. In words: Pre-emergence herbicide test. Conditions: Brassica juncea, read-out: % plant inhibition (Inmu); for inhibition at 1120 g/ha: 1.12 kg/ha; for inhibition at 11210 g/ha: 11.21 kg/ha. The procedure, abridged: as §2
Assay [19] deals with Annual bluegrass. Kind of assay: Pre-emergence herbicide test. Conditions: read-out: % plant inhibition (Anbg); for inhibition at 1120 g/ha: 1.12 kg/ha; for inhibition at 11210 g/ha: 11.21 kg/ha. The procedure, abridged: as §2
Assay [20] deals with Morningglory. In words: Pre-emergence herbicide test. Particulars: Ipomoea, read-out: % plant inhibition (Mogl); for inhibition at 1120 g/ha: 1.12 kg/ha; for inhibition at 11210 g/ha: 11.21 kg/ha. The procedure, abridged: as §2

Consider 7 molecules from US5530126A, “Process for the preparation of substituted 6-(pyrazol-3yl)-1,4-benzoxazin-3-ones” (Monsanto Company, priority 1994, dated 1996).

Each structure is given as a SMILES string.

Broadly, the inhibition is the change of the read-out against control, counted positive when it falls. On to `CC(=NOCC(N)=O)c1cc(-c2nn(C)c(C(F)(F)F)c2Cl)c(F)cc1Cl` [Compound 105], for which the inhibition at 1120 g/ha in the assay with Barnyardgrass [1] was 20%; in the assay on Yellow nutsedge [2] it was 20%; in the assay on Seedling johnsongrass [3], 20%; with Cocklebur [4], 20%; in the assay on Velvetleaf [5] it was 80%; in the assay with Downy Brome [6] it was 0%. Moreover, the inhibition at 1120 g/ha came to 100% in the assay with Wild buckwheat [7]; 30% in the assay on Indian Mustard [8]; 30% in the assay with Annual bluegrass [9]; 40% in the assay with Morningglory [10]; 70% in the assay on Barnyardgrass [11]; 20% in the assay on Yellow nutsedge [12]. Further, the inhibition at 1120 g/ha with Seedling johnsongrass [13] is 60%; in the assay on Cocklebur [14], 10%; in the assay with Velvetleaf [15], 90%; with Downy Brome [16], 40%; in the assay on Wild buckwheat [17] it was 80%; in the assay with Indian Mustard [18], 80%. The inhibition at 1120 g/ha in the assay on Annual bluegrass [19] was 0%; in the assay on Morningglory [20], 80%.
With `Cn1nc(C(F)(F)F)c(Cl)c1-c1ccc(Cl)cc1` [Compound 66], the inhibition at 11210 g/ha with Barnyardgrass [1] came to 20%; in the assay with Yellow nutsedge [2] it was 0%; with Seedling johnsongrass [3] it was 80%; in the assay on Cocklebur [4] it was 0%; in the assay with Velvetleaf [5] it was 50%; in the assay with Downy Brome [6], 30%. Moreover, the inhibition at 11210 g/ha with Wild buckwheat [7] came out at 100%; in the assay on Indian Mustard [8], 30%; in the assay on Annual bluegrass [9], 0%; in the assay with Morningglory [10], 70%; in the assay on Barnyardgrass [11], 10%; in the assay on Yellow nutsedge [12], 0%. Also, the inhibition at 11210 g/ha in the assay with Seedling johnsongrass [13] stood at 90%; with Cocklebur [14], 20%; with Velvetleaf [15], 90%; in the assay on Downy Brome [16] it was 60%; in the assay with Wild buckwheat [17] it was 90%; with Indian Mustard [18], 50%. Also, the inhibition at 11210 g/ha in the assay on Annual bluegrass [19] stood at 50%; in the assay with Morningglory [20], 100%.
As to `CCOC(=O)C(C)OC(=O)c1cc(-c2nn(C)c(C(F)(F)F)c2Cl)c(F)cc1Cl` (centres unmarked) [Compound 138, 2-Chloro-5-(4-chloro-1-methyl-5-(trifluoromethyl)-1H-pyrazol-3-yl)-4-fluorobenzoic acid, 2-ethoxy-1-methyl-2-oxoethyl ester], the inhibition at 1120 g/ha in the assay with Barnyardgrass [1] is 100%; with Yellow nutsedge [2], 20%; with Seedling johnsongrass [3], 100%; with Cocklebur [4], 100%; in the assay on Velvetleaf [5] it was 100%; in the assay on Downy Brome [6], 100%. The inhibition at 1120 g/ha with Wild buckwheat [7] is 100%; with Indian Mustard [8], 100%; with Annual bluegrass [9], 100%; with Morningglory [10], 100%; with Barnyardgrass [11], 50%; in the assay with Yellow nutsedge [12], 20%. Moreover, the inhibition at 1120 g/ha in the assay with Seedling johnsongrass [13] turned out to be 30%; in the assay on Cocklebur [14] it was 100%; with Velvetleaf [15], 100%; in the assay on Downy Brome [16], 90%; with Wild buckwheat [17], 100%; in the assay on Indian Mustard [18], 100%. Further, the values for the inhibition at 1120 g/ha in the assay on Annual bluegrass [19] and in the assay with Morningglory [20] were 40% and 100%, respectively.
For the molecule `CC(C#N)c1cc(-c2nn(C)c(C(F)(F)F)c2Cl)c(F)cc1Cl` (centres unmarked) [Compound 106], the inhibition at 1120 g/ha with Barnyardgrass [1] was 60%; in the assay with Yellow nutsedge [2] it was 10%; in the assay with Seedling johnsongrass [3] it was 40%; with Cocklebur [4] it was 60%; in the assay with Velvetleaf [5], 100%; with Downy Brome [6], 20%. Besides, the inhibition at 1120 g/ha with Wild buckwheat [7] is 90%; in the assay with Indian Mustard [8] it was 60%; in the assay with Annual bluegrass [9] it was 30%; in the assay on Morningglory [10] it was 100%; with Barnyardgrass [11], 80%; in the assay on Yellow nutsedge [12], 0%. Also, the inhibition at 1120 g/ha in the assay with Seedling johnsongrass [13] is 80%; in the assay with Cocklebur [14], 20%; with Velvetleaf [15], 80%; with Downy Brome [16], 80%; with Wild buckwheat [17], 100%; in the assay on Indian Mustard [18], 90%. The inhibition at 1120 g/ha in the assay on Annual bluegrass [19] stood at 30%; with Morningglory [20] it was 60%.
With `COc1cc(F)c(-c2c(Cl)c(C(F)(F)F)nn2C)cc1[N+](=O)[O-]` [Compound 78], the inhibition at 11210 g/ha was found to be 0% in the assay on Barnyardgrass [1]; 0% in the assay on Yellow nutsedge [2]; 10% in the assay with Seedling johnsongrass [3]; 10% with Cocklebur [4]; 40% in the assay on Velvetleaf [5]; 10% with Downy Brome [6]. Further, the inhibition at 11210 g/ha in the assay on Wild buckwheat [7] was found to be 30%; in the assay with Indian Mustard [8], 40%; in the assay on Annual bluegrass [9] it was 0%; in the assay on Morningglory [10] it was 10%; with Barnyardgrass [11], 0%; with Yellow nutsedge [12], 0%. The inhibition at 11210 g/ha in the assay on Seedling johnsongrass [13], in the assay on Cocklebur [14], in the assay on Velvetleaf [15], in the assay with Downy Brome [16], with Wild buckwheat [17] and in the assay with Indian Mustard [18] was 0% in each case. The inhibition at 11210 g/ha in the assay on Annual bluegrass [19] and in the assay with Morningglory [20] was 0% throughout.
Turning to `CCC(C)COC(=O)COc1cc(-c2nn(C)c(C(F)(F)F)c2Cl)c(F)cc1Cl` (centres unmarked) [Compound 287], the inhibition at 1120 g/ha in the assay on Barnyardgrass [1] was 70%; in the assay on Yellow nutsedge [2] it was 10%; in the assay with Seedling johnsongrass [3] it was 80%; with Cocklebur [4] it was 100%; in the assay on Velvetleaf [5], 100%; in the assay with Downy Brome [6], 10%. Moreover, the inhibition at 1120 g/ha was 90% in the assay with Wild buckwheat [7]; 20% with Indian Mustard [8]; 0% with Annual bluegrass [9]; 100% in the assay with Morningglory [10]; 0% in the assay on Barnyardgrass [11]; 30% with Yellow nutsedge [12]. Further, the inhibition at 1120 g/ha came to 0% in the assay on Seedling johnsongrass [13]; 90% in the assay on Cocklebur [14]; 100% in the assay on Velvetleaf [15]; 0% in the assay with Downy Brome [16]; 80% in the assay with Wild buckwheat [17]; 60% in the assay on Indian Mustard [18]. In addition, the inhibition at 1120 g/ha in the assay on Annual bluegrass [19] turned out to be 0%; in the assay with Morningglory [20], 70%.
In the case of `COc1cc(-c2nn(C)c(C(F)(F)F)c2Cl)c(F)cc1Br` [Compound 94], the inhibition at 1120 g/ha stood at 100% in the assay on Barnyardgrass [1]; 10% with Yellow nutsedge [2]; 90% in the assay with Seedling johnsongrass [3]; 80% in the assay with Cocklebur [4]; 100% in the assay on Velvetleaf [5]; 100% in the assay on Downy Brome [6]. Moreover, the inhibition at 1120 g/ha in the assay with Wild buckwheat [7] was 100%; in the assay with Indian Mustard [8] it was 80%; with Annual bluegrass [9], 90%; with Morningglory [10], 90%; with Barnyardgrass [11], 100%; in the assay on Yellow nutsedge [12], 20%. In addition, the inhibition at 1120 g/ha was 100% with Seedling johnsongrass [13]; 60% in the assay with Cocklebur [14]; 100% with Velvetleaf [15]; 100% with Downy Brome [16]; 100% with Wild buckwheat [17]; 100% with Indian Mustard [18]. For the same molecule, the results for the inhibition at 1120 g/ha in the assay with Annual bluegrass [19] and in the assay with Morningglory [20] were 100% and 90%, respectively.
